Data: ChEMBL document CHEMBL1250444, “Nitric oxide activates TRP channels by cysteine S-nitrosylation” (Nat Chem Biol, 2006)
Residue numbers refer to the chain shown, from its start. Activity calls are given as the source filed them. The calls are words filed in the database; no cut-off is given here.

Tests used:
Type in all cases: cell-based
[1] = test system: T1, Short transient receptor potential channel 5 (Homo sapiens), Q9UL62 [C553S]; test: Decrease in TRPC5 C553S mutant S-nitrosylation in HEK cells assessed as inhibition of incorporation of DTNB-2Bio at 300 uM relative to control; settings: HEK293
T1 sequence (whole entry): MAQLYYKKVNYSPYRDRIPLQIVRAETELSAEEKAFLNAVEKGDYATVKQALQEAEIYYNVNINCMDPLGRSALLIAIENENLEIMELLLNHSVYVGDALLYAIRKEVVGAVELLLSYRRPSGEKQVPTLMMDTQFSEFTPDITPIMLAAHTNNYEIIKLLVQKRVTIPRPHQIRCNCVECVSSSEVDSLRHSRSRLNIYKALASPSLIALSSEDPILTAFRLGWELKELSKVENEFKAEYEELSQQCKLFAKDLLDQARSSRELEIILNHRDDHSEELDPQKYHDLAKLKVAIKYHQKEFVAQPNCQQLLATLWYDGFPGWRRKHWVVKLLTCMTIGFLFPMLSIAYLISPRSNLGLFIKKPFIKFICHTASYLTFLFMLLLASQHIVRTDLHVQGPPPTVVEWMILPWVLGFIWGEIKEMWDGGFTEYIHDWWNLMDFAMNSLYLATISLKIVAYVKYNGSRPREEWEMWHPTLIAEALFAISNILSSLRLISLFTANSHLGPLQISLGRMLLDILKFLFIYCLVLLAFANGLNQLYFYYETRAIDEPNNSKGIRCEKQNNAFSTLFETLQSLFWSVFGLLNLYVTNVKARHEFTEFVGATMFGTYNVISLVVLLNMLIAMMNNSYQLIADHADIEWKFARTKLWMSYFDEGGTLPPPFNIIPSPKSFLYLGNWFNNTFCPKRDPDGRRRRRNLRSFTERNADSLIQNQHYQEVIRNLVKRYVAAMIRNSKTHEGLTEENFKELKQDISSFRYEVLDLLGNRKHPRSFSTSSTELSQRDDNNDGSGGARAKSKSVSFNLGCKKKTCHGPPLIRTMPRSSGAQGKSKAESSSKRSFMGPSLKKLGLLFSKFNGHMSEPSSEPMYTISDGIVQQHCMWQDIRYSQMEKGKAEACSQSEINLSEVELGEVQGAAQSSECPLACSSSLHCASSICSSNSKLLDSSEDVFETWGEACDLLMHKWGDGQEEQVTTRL

[2] = test system: T2, Short transient receptor potential channel 5 (Homo sapiens), Q9UL62 [C558S]; test: Decrease in TRPC5 C558S mutant S-nitrosylation in HEK cells assessed as inhibition of incorporation of DTNB-2Bio at 300 uM relative to control; settings: HEK293
T2 sequence (whole entry): T1 sequence (whole entry) with S553C, C558S

HEK293 [3] = test: Activation of rat TRPV1 Cys621 mutant expressed in HEK cells assessed as increase in Ca2+ level from extracellular space at 0.1 to 1 mM
HEK293 [4] = test: Activation of rat TRPV1 Cys621 mutant expressed in HEK cells assessed as increase in Ca2+ level from extracellular space at 10 uM

CC(=O)N[C@@H](C(=O)O)C(C)(C)SN=O (racemic)
Activity [1]: Active | Activity [2]: Active | Activity (HEK293 [3]): inactive

O=[N+]([O-])c1ccc(SSc2ccc([N+](=O)[O-])cn2)nc1
Activity (HEK293 [4]): inactive
